# Measured values as given in US5929075A, “Apolipoprotein-B synthesis inhibitors” (Janssen Pharmaceutica, N.V., priority 1994, dated 1999).
# Tested on: apolipoprotein B
# Experiment: Apolipoprotein B (apo B) inhibition test in cultured human liver cells (Hepg2-cells)
# Type: cell-based
# Settings: concentration of the drug needed to reduce apoB secretion to 50% of the control, overnight at 37° C.
# Experimental: Cultured human liver cells (Hepg2-cells), which synthesize and secrete low-density lipoproteins, were incubated overnight at 37° C. in a liquid medium containing radioactively labelled leucine. Thus radioactively labelled leucine was incorporated into the apolipoprotein B. The liquid medium was decanted and the apolipoprotein B was isolated by means of a double immunoprecipitation, i.e. first an apolipoprotein B-specific antibody (antibody1) was added to the liquid medium and subsequently a second antibody (antibody2) was added which binds specifically to the apoB-antibody1 -complex. The thus formed apoB-antibody1 -antibody2 complex precipitated and was isolated by centrifuge. Quantification of the amount of apolipoprotein B synthesized during the night resulted from measuring the radioactivity of the isolated complex. To measure the inhibiting activity of the test compound, that test compound was added to the liquid medium at different concentrations and the concentration of apolipoprotein B synthesized in the presence of a test compound (concentration apoB(after)) was compared to the concentration of apolipoprotein B which was synthesized in the absence of the test compound (concentration apoB(control)). For each experiment the inhibition of apolipoprotein-B formation was expressed as
# % inhibition=100×(1-concentration of apoB(after)/concentration
# When more experiments were carried out for the same concentration, the median value of the inhibition calculated for these experiments was calculated. IC50 -values (concentration of the drug needed to reduce apoB secretion to 50% of the control) were also computed.
row,Compound,IC50 [nM]
1,CCC(C)n1ncn(-c2ccc(N3CCN(c4ccc(OC[C@H]5CO[C@](CSc6nc(C)cc(C)n6)(c6ccc(Cl)cc6)O5)cc4)CC3)cc2)c1=O (relative stereo) [Compound 102],370
2,CCC(C)n1ncn(-c2ccc(N3CCN(c4ccc(OC[C@@H]5CO[C@@](CSc6nnc(C(F)(F)F)[nH]6)(c6ccc(Cl)cc6)O5)cc4)CC3)cc2)c1=O (relative stereo) [Compound 49],850
3,Cn1ncnc1SC[C@]1(c2ccc(F)cc2F)OC[C@H](COc2ccc(N3CCN(c4ccc(-n5cnn(C6CCCC6)c5=O)cc4)CC3)cc2)O1 (relative stereo) [Compound 67],180
4,CCC(CC)n1ncn(-c2ccc(N3CCN(c4ccc(OC[C@H]5CO[C@](CSc6ncnn6C)(c6ccc(F)cc6)O5)cc4)CC3)cc2)c1=O (relative stereo) [Compound 64],160
5,CC(C)n1cnn(-c2ccc(N3CCN(c4ccc(OC[C@H]5CO[C@](CSc6ncnn6C)(c6ccc(Cl)cc6)O5)cc4)CC3)cc2)c1=O (relative stereo) [Compound 68],81
6,Cn1cnnc1SC[C@@]1(c2ccc(F)cc2F)OC[C@@H](COc2ccc(N3CCN(c4ccc(-n5cnn(C6CCCC6)c5=O)cc4)CC3)cc2)O1 (relative stereo) [Compound 37],230
7,Cn1ncnc1SC[C@]1(c2ccc(F)cc2)OC[C@H](COc2ccc(N3CCN(c4ccc(-n5ncn(C6CCCC6)c5=O)cc4)CC3)cc2)O1 (relative stereo) [Compound 74],140
8,CCCCn1cnnc1SC[C@@]1(c2ccc(Cl)cc2)OC[C@@H](COc2ccc(N3CCN(c4ccc(-n5cnn(C(C)CC)c5=O)cc4)CC3)cc2)O1 (relative stereo) [Compound 51],47
9,CC(C)Cn1ncn(-c2ccc(N3CCN(c4ccc(OC[C@H]5CO[C@](CSc6ncnn6C)(c6ccc(Cl)cc6)O5)cc4)CC3)cc2)c1=O (relative stereo) [Compound 61],81
10,CC(C)Cn1cnn(-c2ccc(N3CCN(c4ccc(OC[C@H]5CO[C@](CSc6ncnn6C)(c6ccc(Cl)cc6)O5)cc4)CC3)cc2)c1=O (relative stereo) [Compound 87],69
11,CCC(C)n1ncn(-c2ccc(N3CCN(c4ccc(OC[C@H]5CO[C@](CSc6ncn[nH]6)(c6ccc(Cl)cc6)O5)cc4)CC3)cc2)c1=O (relative stereo) [Compound 76],24
12,CC[C@H](C)n1ncn(-c2ccc(N3CCN(c4ccc(OC[C@@H]5CO[C@@](CSc6nncn6C)(c6ccc(Cl)cc6)O5)cc4)CC3)cc2)c1=O [Compound 38],65
13,CCCn1cnn(-c2ccc(N3CCN(c4ccc(OC[C@@H]5CO[C@@](CSc6nncn6C)(c6ccc(Cl)cc6)O5)cc4)CC3)cc2)c1=O (relative stereo) [Compound 8],130
14,CCCn1ncnc1SC[C@]1(c2ccc(Cl)cc2)OC[C@H](COc2ccc(N3CCN(c4ccc(-n5cnn(C(C)CC)c5=O)cc4)CC3)cc2)O1 (relative stereo) [Compound 80],72
15,CCCCCn1ncn(-c2ccc(N3CCN(c4ccc(OC[C@@H]5CO[C@@](CSc6nncn6C)(c6ccc(Cl)cc6)O5)cc4)CC3)cc2)c1=O (relative stereo) [Compound 32],180
16,CCC(C)n1cnn(-c2ccc(N3CCN(c4ccc(OC[C@H]5CO[C@](CSc6nccs6)(c6ccc(Cl)cc6)O5)cc4)CC3)cc2)c1=O (relative stereo) [Compound 110],27
17,CCC(C)n1ncn(-c2ccc(N3CCN(c4ccc(OC[C@H]5CO[C@](CSc6nncn6C(C)C)(c6ccc(Cl)cc6)O5)cc4)CC3)cc2)c1=O (relative stereo) [Compound 52],250
18,CCC(C)n1ncn(-c2ccc(N3CCN(c4ccc(OC[C@H]5CO[C@](CSc6ccccn6)(c6ccc(Cl)cc6)O5)cc4)CC3)cc2)c1=O (relative stereo) [Compound 105],99
19,CCC(C)n1cnn(-c2ccc(N3CCN(c4ccc(OC[C@H]5CO[C@](CSc6ncnn6C)(c6ccc(Cl)cc6)O5)cc4)CC3)cc2)c1=O (relative stereo) [Compound 69],26
20,CCCCn1ncnc1SC[C@]1(c2ccc(Cl)cc2)OC[C@H](COc2ccc(N3CCN(c4ccc(-n5cnn(C(C)CC)c5=O)cc4)CC3)cc2)O1 (relative stereo) [Compound 79],46
21,CCC(C)n1ncn(-c2ccc(N3CCN(c4ccc(OC[C@H]5CO[C@](CSc6nccs6)(c6ccc(Cl)cc6)O5)cc4)CC3)cc2)c1=O (relative stereo) [Compound 108],26
22,Cn1cnnc1SC[C@]1(c2ccc(Cl)cc2)OC[C@H](COc2ccc(N3CCN(c4ccc(-n5ccn(C6CCCC6)c5=O)cc4)CC3)cc2)O1 (relative stereo) [Compound 123],74

row,Compound,IC50 [nM]
1,CCC(C)n1ncn(-c2ccc(N3CCN(c4ccc(OC[C@H]5CO[C@](CSc6nc(C)nn6C)(c6ccc(Cl)cc6)O5)cc4)CC3)cc2)c1=O (relative stereo) [Compound 81],49
2,CCCCn1cnn(-c2ccc(N3CCN(c4ccc(OC[C@@H]5CO[C@@](CSc6nncn6C)(c6ccc(Cl)cc6)O5)cc4)CC3)cc2)c1=O (relative stereo) [Compound 15],48
3,CCCn1cnnc1SC[C@]1(c2ccc(Cl)cc2)OC[C@H](COc2ccc(N3CCN(c4ccc(-n5cnn(C(C)CC)c5=O)cc4)CC3)cc2)O1 (relative stereo) [Compound 55],78
4,CCC(CC)n1ncn(-c2ccc(N3CCN(c4ccc(OC[C@@H]5CO[C@@](CSc6nncn6C)(c6ccc(Cl)cc6)O5)cc4)CC3)cc2)c1=O (relative stereo) [Compound 44],51
5,CC(C)Cn1cnn(-c2ccc(N3CCN(c4ccc(OC[C@H]5CO[C@](CSc6nccs6)(c6ccc(Cl)cc6)O5)cc4)CC3)cc2)c1=O (relative stereo) [Compound 111],62
6,CCC(CC)n1ncn(-c2ccc(N3CCN(c4ccc(OC[C@@H]5CO[C@@](CSc6nncn6C)(c6ccc(F)cc6)O5)cc4)CC3)cc2)c1=O (relative stereo) [Compound 43],110
7,CCC(C)n1ncn(-c2ccc(N3CCN(c4ccc(OC[C@H]5CO[C@](CSc6nncn6CC)(c6ccc(Cl)cc6)O5)cc4)CC3)cc2)c1=O (relative stereo) [Compound 53],84
8,CCC(C)n1ncn(-c2ccc(N3CCN(c4ccc(OC[C@H]5CO[C@](CSc6ncnn6CC)(c6ccc(Cl)cc6)O5)cc4)CC3)cc2)c1=O (relative stereo) [Compound 77],71
9,CCC(C)n1ccn(-c2ccc(N3CCN(c4ccc(OC[C@H]5CO[C@](CSc6nncn6C)(c6ccc(Cl)cc6)O5)cc4)CC3)cc2)c1=O (relative stereo) [Compound 93],27
10,CCC(C)n1ncn(-c2ccc(N3CCN(c4ccc(OC[C@@H]5CO[C@@](CSc6nncn6C)(c6ccc(F)cc6)O5)cc4)CC3)cc2)c1=O (relative stereo) [Compound 28],97
11,CCC(C)n1ncn(-c2ccc(N3CCN(c4ccc(OC[C@H]5CO[C@](CSc6ccncc6)(c6ccc(Cl)cc6)O5)cc4)CC3)cc2)c1=O (relative stereo) [Compound 106],880
12,CCC(C)n1ncn(-c2ccc(N3CCN(c4ccc(OC[C@H]5CO[C@](CSc6ncnn6C)(c6ccc(F)cc6)O5)cc4)CC3)cc2)c1=O (relative stereo) [Compound 63],46
13,CCC(CC)n1cnn(-c2ccc(N3CCN(c4ccc(OC[C@H]5CO[C@](CSc6ncnn6C)(c6ccc(F)cc6)O5)cc4)CC3)cc2)c1=O (relative stereo) [Compound 75],120
14,CC(C)n1cnn(-c2ccc(N3CCN(c4ccc(OC[C@@H]5CO[C@@](CSc6nncn6C)(c6ccc(F)cc6)O5)cc4)CC3)cc2)c1=O (relative stereo) [Compound 4],260
15,CCC(CC)n1cnn(-c2ccc(N3CCN(c4ccc(OC[C@H]5CO[C@](CSc6ncnn6C)(c6ccc(F)cc6F)O5)cc4)CC3)cc2)c1=O (relative stereo) [Compound 73],180
16,CC(C)Cn1cnn(-c2ccc(N3CCN(c4ccc(OC[C@@H]5CO[C@@](CSc6nncn6C)(c6ccc(Cl)cc6)O5)cc4)CC3)cc2)c1=O (relative stereo) [Compound 3],91
17,CCC(C)n1ncn(-c2ccc(N3CCN(c4ccc(OC[C@H]5CO[C@](CSc6nncn6CC(C)C)(c6ccc(Cl)cc6)O5)cc4)CC3)cc2)c1=O (relative stereo) [Compound 54],79
18,Cn1cnnc1SC[C@@]1(c2ccc(Cl)cc2)OC[C@@H](COc2ccc(N3CCN(c4ccc(-n5cnn(C6CCCC6)c5=O)cc4)CC3)cc2)O1 (relative stereo) [Compound 24],58
19,Cn1cnnc1SC[C@@]1(c2ccc(F)cc2)OC[C@@H](COc2ccc(N3CCN(c4ccc(-n5cnn(C6CCCC6)c5=O)cc4)CC3)cc2)O1 (relative stereo) [Compound 35],77
20,Cn1ncnc1SC[C@]1(c2ccc(F)cc2F)OC[C@H](COc2ccc(N3CCN(c4ccc(-n5ncn(C6CCCC6)c5=O)cc4)CC3)cc2)O1 (relative stereo) [Compound 72],190
21,CCC(C)n1ccn(-c2ccc(N3CCN(c4ccc(OC[C@H]5CO[C@](CSc6nncn6C)(c6ccc(F)cc6)O5)cc4)CC3)cc2)c1=O (relative stereo) [Compound 126],140
22,CCC(CC)n1ncn(-c2ccc(N3CCN(c4ccc(OC[C@H]5CO[C@](CSc6ncnn6C)(c6ccc(F)cc6F)O5)cc4)CC3)cc2)c1=O (relative stereo) [Compound 65],290
